Patent publication US12448382B2, “Heterocyclic compounds for mediating tyrosine kinase 2 activity” (GUANGZHOU INNOCARE PHARMA TECH CO., LTD., priority 2019, dated 2025)
Read-outs that look alike come from different tables or passages of the source.

Legend:
[1] = target: T1, human recombinant TYK2 protein (Homo sapiens, UniProt P29597); assay: TYK2 Inhibition Assay (HTRF kinase assay); assay type: biochemical; details: human recombinant TYK2, 11.25 μM ATP substrate solution
T1 construct: purchased Carna Biosciences 08-147
T1 sequence (P29597 871-1187 limits assumed): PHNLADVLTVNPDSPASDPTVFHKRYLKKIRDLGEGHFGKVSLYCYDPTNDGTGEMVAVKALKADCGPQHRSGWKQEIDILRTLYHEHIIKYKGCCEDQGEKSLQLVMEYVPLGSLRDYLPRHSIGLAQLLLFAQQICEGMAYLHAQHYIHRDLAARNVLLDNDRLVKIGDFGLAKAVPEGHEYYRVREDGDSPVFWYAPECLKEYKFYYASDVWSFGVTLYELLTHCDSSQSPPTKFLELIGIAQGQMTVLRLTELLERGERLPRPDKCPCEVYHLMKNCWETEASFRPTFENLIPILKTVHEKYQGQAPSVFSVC
Description: The effect of the compounds of the present invention on the enzymatic activity of TYK2 was assessed by detecting the substrate phosphorylation level in a kinase reaction using the HTRF kinase assay detection kit (Cisbio, Cat. No. 62TK0PEC).
(§1) The experimental method is generally described below:
A reaction buffer contained the following components: an enzyme reaction buffer (1×), 5 mM MgCl2 mM DTT and 0.01% Brij35 from the kit. A TYK2 kinase solution contained human recombinant TYK2 protein (Carna Biosciences, 08-147) diluted in the reaction buffer to 0.25 ng/μL. A substrate reaction solution contained 11.25 μM ATP and 0.5 μM of a biotinylated tyrosine kinase substrate from the kit in the reaction buffer. A detection solution contained 0.1 ng/μL Eu^3+-labeled cage antibody (Cisbio, 61T66KLB) and 25 nM streptavidin-1 added XL665 (Cisbio, 610SAXLB) in the reaction buffer.
(§2) The test compound was dissolved in DMSO to 10 μM, followed by a serial 4-fold dilution with DMSO to a minimum concentration of 0.061 nM. Each concentration was further diluted 40-fold with the reaction buffer.
(§3) To a 384-well assay plate (Corning, 3674) were added 4 μL of compound solution and 2 μL of TYK2 kinase solution. The mixture was mixed and incubated at room temperature for 15 minutes, and then added with 4 μL of the substrate reaction solution. After further incubation at room temperature for 40 minutes, the reaction mixture was added with an equal volume of 10 μL detection solution and allowed to stand at room temperature for 30 minutes. An Envision plate reader (Perkin Elmer) was then used to measure the progress of the reaction at 620 nm and 665 nm. The ratio of absorbances at 665 nm and 620 nm was positively correlated with the degree of substrate phosphorylation, therefore the activity of TYK2 kinase was detected. In the experiment, the group without TYK2 kinase protein was treated as the 100% inhibition group, and the group with TYK2 kinase protein but not the test compound was treated as the 0% inhibition group. The percentage of inhibition on TYK2 kinase activity by the test, compound was calculated using the following formula: Percentage of inhibition=100−100*(ratiocompound−ratio100% inhibition)/(ratio0% inhibition−ratio100% inhibition)
The IC50 value of the test compound was calculated from 8 concentration points using the XLfit software (ID Business Solutions Ltd., UK) by the following formula: Y=Bottom+(Top−Bottom)/(1+10^((log IC50−X)slope factor))
(§4) Where Y was the percentage of inhibition, X was the logarithm of the concentration of the test compound, Bottom was the bottom plateau value of the S-shaped curve, Top was the top plateau value of the S-shaped curve, and slope factor was the slope coefficient of the curve.

[2] = system: IL-12-induced IFN-γ secretion in NK92 cells; assay: Inhibition of IL-12-induced IFN-γ Secretion in NK92 Cells (ELISA); assay type: cell-based, human; details: 24 hours incubation, 8 concentration points, read-out: IC50 (NK92_IL12/IFNγ)
Description: Inhibition of IL-12-induced IFN-γ Secretion in NK92 Cells
The effect of the compounds of the present invention on IFN-γ secretion induced by IL-12 in NK92 cells was evaluated by an enzyme-linked immunosorbent assay (ELISA).
IL-12 receptor is mainly expressed in activated T-cells, NK cells (NK92 is a NK cell line), DC cells, and B-cells. When binding to IL-12, it activates JAK2/TYK2 signal transduction pathway within NK cells and T lymphocytes, thereby inducing secretion of IFN-γ.
as §1
The test compound was dissolved in DMSO to 2.5 mM, followed by a serial 4-fold dilution with DMSO to a minimum concentration of […]. Each concentration was further diluted 50-fold with an FBS-free MEMα medium (Gibco, 12561-056).
NK92 cells (Nanjing Cobioer, CBP60980) were cultured in a complete MEMα medium containing 12.5% FBS (Ausbian, VS500T), 12.5% horse serum (Gibco, 16050-122), 0.02 mM folic acid (Sigma, F8758), 0.2 mM inositol (Sigma, 17850), 0.55 mM β-mercaptoethanol (Gibco, 21985-023), 200 U/mL IL-2 (R&D Systems, 202-1L), and 100 U/mL penicillin (Thermofisher, 15140122). When covering 80-90% of the culture container surface, the cells were dispersed and plated on a 96-well plate (Thermofisher, 167425) with 100,000 cells per well (80 μL of the complete MEMα medium without IL-2). The 96-well plate was then incubated overnight in a 37° C./5% CO2 incubator.
After overnight incubation, 10 μL of the test compound and 10 μL of 50 ng/mL IL-12 (R & D Systems, 219-1L) were added to each well and mix gently, and the 96-well plate was incubated in the 37° C./5% CO2 incubator for additional 24 hours. The plate as centrifuged at 800 rpm for 10 minutes at room temperature and 50 μL of the supernatant from each well was transferred to another 96-well plate (Sigma, CLS3695) coated with anti-IFN-γ antibody. The amount of IFN-γ secretion was detected following the instruction from the Human IFN-γ DuoSet ELISA kit (R & D Systems, DY285B). In the experiment, the group with IL-12 and the test compound being replaced with the MEMα medium was the non-stimulated control group (100% inhibition), and the group with IL-12 and 0.2% DMSO was the stimulated group (0% inhibition). The percentage of inhibition on IL-12 induced IFN-γ secretion in NK-92 cells by the test compound was calculated using the following formula: Percentage of inhibition=100−100*(signalcompound−signalnon-stimulated control)/(signalstimulated control−signalnon-stimulated control)
The IC50 value of the test compound was calculated front 8 concentration points using the XLfit software (ID Business Solutions Ltd., UK) by the following formula: Y=Bottom+(Top−Bottom)/(1+10^((log IC50−X)×slope factor))
as §4

[3] = target: T2, human recombinant JAK2 protein (Homo sapiens, UniProt O60674); assay: JAK2 Inhibition Assay (HTRF kinase assay); assay type: biochemical; details: human recombinant JAK2, 2.5 μM ATP substrate solution
T2 construct: purchased Carna Biosciences 08-045
Description: The effect of the compounds of the present invention on the enzymatic activity of JAK2 was assessed by detecting the substrate phosphorylation level in a kinase reaction using the HTRF kinase assay detection kit (Cisbio, Cat. No. 62TK0PEC).
as §1
A reaction buffer contained the following components: an enzyme reaction buffer (1×), 5 mM MgCl2, 1 mM DTT and 0.01% Brij35 from the kit. A JAK2 kinase solution contained a human recombinant JAK2 protein (Carna Biosciences, 08-045) diluted in the reaction buffer to 0.15 ng/μL. A substrate reaction solution contained 2.5 μM ATP and 0.25 μM of a biotinylated tyrosine kinase substrate from the kit in the reaction buffer. A detection solution contained 0.1 ng/μL Eu^3+-labeled cage antibody (Cisbio, 61T66KLB) and 12.5 nM streptavidin-labeled XL665 (Cisbio, 610SAXLB) in the reaction buffer.
as §2
as §3, with “JAK2” for “TYK2”, “30” for “40”, “test” for “test,”
The IC50 value of the test compound was calculated from 8 concentration points using the XLfit softwere (ID Business Solutions Ltd., UK) by the following formula: Y=Bottom+(Top−Bottom)/(1+10^((log IC50−X)×slope factor))
Where Y was the percentage of inhibition, X was the logarithm of the concentration of the test compound. Bottom was the bottom plateau value of the S-shaped curve, Top was the top plateau value of the S-shaped curve, and slope factor was the slope coefficient of the curve.

T2 sequence (O60674 826-1132 limits assumed): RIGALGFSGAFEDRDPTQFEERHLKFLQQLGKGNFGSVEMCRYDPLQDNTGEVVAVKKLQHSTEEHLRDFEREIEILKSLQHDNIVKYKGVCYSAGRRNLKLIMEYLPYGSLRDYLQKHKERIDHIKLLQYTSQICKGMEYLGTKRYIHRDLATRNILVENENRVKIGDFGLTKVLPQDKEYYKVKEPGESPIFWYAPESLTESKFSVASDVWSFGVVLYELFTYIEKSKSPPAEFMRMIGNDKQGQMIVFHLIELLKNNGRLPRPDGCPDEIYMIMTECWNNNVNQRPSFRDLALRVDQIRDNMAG

| Compound | IC50 [1] | IC50 [2] | IC50 [3] | IC50 ([2]; Homo sapiens) |
| --- | --- | --- | --- | --- |
| 3-((3aR,6aS)-3a,6a-dimethyl-5-5-methyl-2-((1-methyl-1H-pyrazol-4-yl)amino)pyrimidin-4-yl)hexahydropyrrolo[3,4-c]pyrrol-2(1H)-yl)-3-oxopropanenitrile [Compound 57] | 2.3 nM | 5240 nM | 3.2 nM |  |
| Cn1cc(Nc2ncc(Cl)c(N3C[C@@H]4CN(S(C)(=O)=O)C[C@]4(C)C3)n2)cn1 (racemic) [Compound 61, cis-5-chloro-N-(1-methyl-1H-pyrazol-4-yl)-4-(3a-methyl-5-(methylsulfonyl)hexahydropyrrolo[3,4-c]pyrrol-2(1H)-yl)pyrimidin-2-amine] | 1.6 nM |  | 8.9 nM | 578 nM |
| Cn1cc(Nc2ncc(Cl)c(N3C[C@H]4CN(C(=O)C5CC5)C[C@@]4(C)C3)n2)cn1 (racemic) [Compound 62, cis-(5-(5-chloro-2-((1-methyl-1H-pyrazol-4-yl)amino)pyrimidin-4-yl)-3a-methylhexahydropyrrolo[3,4-c]pyrrol-2(1H)-yl)(cyclopropyl)methanone] | 0.6 nM |  | 2.6 nM | 269 nM |
| Cn1cc(Nc2ncc(Cl)c(N3C[C@@H]4CN(C(=O)c5ccno5)C[C@]4(C)C3)n2)cn1 (racemic) [Compound 64, cis-(5-(5-chloro-2-((1-methyl-1H-pyrazol-4-yl)amino)pyrimidin-4-yl)-3a-methylhexahydropyrrolo[3,4-c]pyrrol-2(1H)-yl)(isoxazol-5-yl)methanone] | 0.5 nM |  | 3.3 nM | 162 nM |
| Cn1cc(Nc2ncc(Cl)c(N3C[C@@H]4CN(C(=O)CC(F)(F)F)C[C@]4(C)C3)n2)cn1 (racemic) [Compound 68, cis-1-(5-(5-chloro-2((1-methyl-1H-pyrazol-4-yl)amino)pyrimidin-4-yl)-3a-methylhexahydropyrrolo[3,4-c]pyrrol-2(1H)-yl)-3,3,3-trifluoropropan-1-one] | 1.4 nM |  | 31 nM | 330 nM |
| Cc1cnc(Nc2cnn(C)c2)nc1N1C[C@@H]2CN(C(=O)C3CC3)C[C@]2(C)C1 (racemic) [Compound 70, cis-cyclopropyl(3a-methyl-5-(5-methyl-2-((1-methyl-1H-pyrazol-4-yl)amino)pyrimidin-4-yl)hexahydropyrrolo[3,4-c]pyrrol-2(1H)-yl)methanone] | 5.3 nM |  | 17 nM | 1200 nM |

Other lines, results leading:

| IC50 [1] | IC50 [2] | IC50 [3] | IC50 ([2]; Homo sapiens) | Compound |
| --- | --- | --- | --- | --- |
| 6 nM | 291 nM | 2.2 nM |  | 4-(3aR,6aS)-5-(isoxazol-5-ylmethyl)-3a,6a-dimetylhexahydropyrrolo[3,4-c]pyrrol-2(1H)-yl)-5-methyl-N-(1-methyl-1H-pyrazol-4-yl)pyrimidin-2-amine [Compound 67] |
| 0.3 nM |  | 1.2 nM | 267 nM | Cn1cc(Nc2ncc(Cl)c(N3C[C@@H]4CN(C(=O)CC#N)C[C@]4(C)C3)n2)cn1 (racemic) [Compound 63, cis-3-(5-(5-chloro-2-((1-methyl-IH-pyrazol-4-yl)amino)pyrimidin-4-yl)-3a-methylhexahydropyrrolo[3,4-c]pyrrol-2(1H)-yl)-3-oxopropanenitrile] |
| 0.5 nM |  | 1.3 nM | 136 nM | Cn1cc(Nc2ncc(Cl)c(N3C[C@@H]4CN(C(=O)C5CC5(F)F)C[C@]4(C)C3)n2)cn1 (mixture of isomers) [Compound 65, cis-(5-(5-chloro-2-((1-methyl-1H-pyrazol-4-yl)amino)pyrimidin-4-yl)-3a-methylhexahydropyrrolo[3,4-c]pyrrol-2(1H)-yl)((S)-2,2-difluorocyclopropyl)methanone] |
| 1.2 nM |  | 3.3 nM | 3540 nM | Cc1cnc(Nc2cnn(C)c2)nc1N1C[C@@H]2CN(C(=O)CC#N)C[C@]2(C)C1 (racemic) [Compound 71, cis-3-(3a-methyl-5-(5-methyl-2-((1-methyl-1H-pyrazol-4-yl)amino)pyrimidin-4-yl)hexahydropyrrolo[3,4-c]pyrrol-2(1H)-yl)-3-oxopropanenitrile] |
